In US10226451B2, “Substituted bicyclic compounds as bromodomain inhibitors” (ZENITH EPIGENETICS LTD, priority 2013, dated 2019):

Legend:
[1] = system: c-myc in Human AML MV4-11 cells; assay: Inhibition of c-MYC expression (mRNA, real-time PCR) in MV4-11 cells; type: cell-based; conditions: 3 h, mRNA by real-time PCR
In short: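 Cells at 2.5×10^4 per well in IMDM/10% FBS were treated with rising compound concentrations or 0.1% DMSO for 3 h at 37° C., in triplicate. cMYC mRNA was measured by one-step TaqMan qRT-PCR, normalised to cyclophilin, and expressed as fold expression relative to control.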

Human AML MV-4-11 cells = assay: Inhibition of cell proliferation in MV4-11 cells (CellTiter Aqueous One); type: cell-based; conditions: 72 h
In short: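 MV4-11 cells at 5×10^4/well in IMDM with 10% FBS were exposed to increasing compound concentrations or 0.1% DMSO, in triplicate, for 72 h at 37 °C. A further 3-4 h with CellTiter Aqueous One reagent followed. A490, blank-corrected and expressed relative to DMSO, gave IC50.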

[2] = system: hApoA-I mRNA in Huh7 cells; assay: Up-regulation of hApoA-1 mRNA transcription in Huh7 cells; type: cell-based, Human; conditions: EC170, Huh7 cells, 48 h
Experimental: In this example, hApoA-I mRNA in tissue culture cells was quantitated to measure the transcriptional up-regulation of hApoA-I when treated with a compound of the present disclosure.
Huh7 cells (2.5×10^5 per well) were plated in a 96-well plate using 100 μL DMEM per well, (Gibco DMEM supplemented with penicillin/streptomycin and 10% FBS), 72 h before the addition of the compound. The cells are treated with increasing concentrations of the compound or DMSO (0.1%), and incubated at 37° C., 5% CO2 for 48 h. Spent media was removed from the Huh-7 cells and placed on ice for immediate use with the “LDH cytotoxicity assay Kit II” from Abcam. The cells remaining in the plate were rinsed with 100 μL PBS. Cells were harvested using the mRNA Catcher PLUS kit according to manufacturer's instructions. The eluted mRNA was then used in a one-step quantitative real-time PCR reaction, using components of the RNA UltraSense™ One-Step Kit (Life Technologies) together with Applied Biosystems TaqMan® primer-probes for hApoA-I and Cyclophilin. Real-time PCR plates were run on a ViiA™7 real time PCR machine (Applied Biosystems), data was analyzed, normalizing the Ct values for hApoA-1 to an internal control, prior to determining the fold induction of each unknown sample, relative to the control.

MV4-11 cells xenograft = assay: In vivo efficacy, acute myeloid leukemia xenograft model using MV4-11 cells; design: species or system mouse; conditions: MV4-11 xenograft, nu/nu mice, oral dosing, tumor growth inhibition
Experimental: MV4-11 cells (ATCC) were grown under standard cell culture conditions and (NCr) nu/nu fisol strain of female mice age 6-7 weeks were injected with 5×10^6 cells/animal in 100 μL PBS+100 μL Matrigel in the lower left abdominal flank. By approximately day 18-21 after MV4-11 cells injection, mice were randomized based on tumor volume (L×W×H)/2) of average ˜100-300 mm^3. Mice were dosed orally with compound at 5 to 120 mg/kg b.i.d and/or q.d. on a continuous dosing schedule and at 2.5 to 85 mg/kg q.d. on a 5 day on 2 day off, 100 mg/kg q.d. on a 4 day on and 3 day off, 135 mg/kg q.d. on a 3 day on and 4 day off, 180 mg/kg on a 2 day on and 5 day off and 240 mg/kg on a 1 day on and 6 days off dosing schedules in EA006 formulation at 10 mL/kg body weight dose volume. Tumor measurements were taken with electronic micro calipers and body weights measured on alternate days beginning from dosing period. The average tumor volumes, percent Tumor Growth Inhibition (TGI) and % change in body weights were compared relative to Vehicle control animals. The means, statistical analysis and the comparison between groups were calculated using Student's t-test in Excel.

MM1.s cells xenograft = assay: In vivo efficacy, multiple myeloma xenograft model using MM1.s cells; design: species or system mouse; conditions: SCID-Beige mice, oral dosing, tumor growth inhibition
Experimental: MM1.s cells (ATCC) were grown under standard cell culture conditions and SCID-Beige strain of female mice age 6-7 weeks were injected with 10×10^6 cells/animal in 100 μL PBS+100 μL Matrigel in the lower left abdominal flank. By approximately day 21 after MM1.s cells injection, mice were randomized based on tumor volume (L×W×H)/2) of average ˜120 mm^3. Mice were dosed orally with compound at 25 to 90 mg/kg b.i.d and or q.d in EA006 formulation at 10 mL/kg body weight dose volume. Tumor measurements were taken with electronic micro calipers and body weights measured on alternate days beginning from dosing period. The average tumor volumes, percent Tumor Growth Inhibition (TGI) and % change in body weights were compared relative to Vehicle control animals. The means, statistical analysis and the comparison between groups were calculated using Student's t-test in Excel.

IC50 [1]: ≤ 300 nM
IC50 (Human AML MV-4-11 cells): ≤ 300 nM
SMILES: Cc1noc(C)c1-c1cc(-c2c(C)nn(C)c2C)c2c(c1)[nH]c(=O)n2C [Example Compound 9, 5-(3,5-dimethylisoxazol-4-yl)-1-methyl-7-(1,3,5-trimethyl-1H-pyrazol-4-yl)-1H-benzo[d]imidazol-2(3H)-one]
ApoA-1 activity [2]: +++ (EC170 value less than or equal to 0.3 μM were deemed to be highly active (+++))
In vivo activity (MV4-11 cells xenograft): Active
In vivo activity (MM1.s cells xenograft): Active
